One assay concerns rib fracture site. Particulars: adult beagles, 0.2 mg injected into rib fracture sites twice a day for 10 days; cited from earlier work.
Assay [1] has as its system alveolar bone in the mandible. The settings on record: dogs, local infusion for 3 weeks, 500 to 2000 μg per week; cited from earlier work.
In the next assay the test system is tibia defect site. The settings on record: beagles, 0.2 mg/kg injected into tibia defect site twice a day for 10 days; cited from earlier work.
Assay [2] relates to Bone Morphogenetic Protein 7 (BMP-7) expression in wild type 293S cells. Briefly: Kidney regeneration assay: BMP-7 expression (Northern blot) in wild type 293S cells. The class given is cell-based, human. The settings on record: parental 293S cell line, 10^-6M, RNA at 8, 16 and 24 hours. How it is done: (§1) Methods: 293S and EP2 293S cells are grown in Dulbecco's Modified Eagle medium (DMEM, Gibco, BRL; Gaithersburg, Md.). […] Cells are harvested and RNA is extracted at 8, 16 and 24 hours. Northern blot analysis of total RNA ([…]) is carried out by probing the blots with ^32P-labeled BMP-7 probe. The blots are normalized for RNA loading by hybridization with ^32P-labeled 18s ribosomal RNA probe. […] Given the known role of BMP-7 in kidney regeneration and the ability of an prostaglandin agonist to induce BMP-7 expression in 293S kidney cells in a time and receptor specific manner indicates a role for prostaglandin agonist in kidney regeneration.

In assay [3] the test system is trabecular bone in the tibial metaphysis. The settings on record: daily intraosseous injections into left tibia metaphysis for 14 days; cited from earlier work.
Assay [4] has as its system Bone Morphogenetic Protein 7 (BMP-7) expression in 293S cells transfected with EP2. Briefly: Kidney regeneration assay: BMP-7 expression (Northern blot) in EP2 293S cells. The class given is cell-based, human. Particulars: 10^-6M, RNA at 8, 16 and 24 hours. The procedure:
as §1

The values that follow come from patent US20110046385A1, “Polymorphs Of Prostaglandin Agonists And Methods For Making The Same” (priority 2007, published 2011).

As to `CCCCC[C@H](O)/C=C/[C@H]1[C@H](O)CC(=O)[C@@H]1CCCCCCC(=O)O` [PGE1, prostaglandin E1], the “bone matrix formation at fracture site” value in the assay on rib fracture site was “induced bone matrix formation on the periosteal envelope adjacent to the fracture site and its contralateral matching site”. Besides, the alveolar bone formation result in assay [1] was “dramatic, localized formation of alveolar bone”. Also, the “periosteal and cortical endosteal bone formation” value in the assay on tibia defect site was “more periosteal and cortical endosteal bone formation, with an increased amount of osteoid present”.

On to `CCCCC[C@H](O)/C=C/[C@H]1[C@H](O)CC(=O)[C@@H]1C/C=C\CCCC(=O)O` [PGE2, prostaglandin E2], for which the “induction of BMP-7 expression” value is “generally not observed” in assay [2] and “induce the expression of BMP-7 in the EP2 293S cells in a time dependent manner” in assay [4]. Moreover, in assay [3], the “trabecular bone in the metaphysis” value is “significant increase of trabecular bone in the metaphysis”.
